A short description of the series: Toxicity in po dosed human assessed as maximum daily dose. It is filed as organism-based. To be noted: in vivo.

The structures appear in SMILES notation.

For `CC(C)(C)NC(=O)[C@@H]1C[C@@H]2CCCC[C@@H]2CN1C[C@@H](O)[C@H](Cc1ccccc1)NC(=O)[C@H](CC(N)=O)NC(=O)c1ccc2ccccc2n1`, the Activity was 2000 mg.

Regarding `CCCN(CCC)C(=O)Cc1c(-c2ccc(Cl)cc2)nc2ccc(Cl)cn12` [ALPIDEM], the Activity was 150 mg.

Turning to `COc1ccc(Cl)cc1C(=O)NCCc1ccc(S(=O)(=O)NC(=O)NC2CCCCC2)cc1` [GLYBURIDE], the Activity came to 20 mg.

Take `CCCCC1=NC2(CCCC2)C(=O)N1Cc1ccc(-c2ccccc2-c2nnn[nH]2)cc1` [IRBESARTAN]: the Activity stood at 300 mg.

For `CC(=O)N1CCN(c2ccc(OCC3COC(Cn4ccnc4)(c4ccc(Cl)cc4Cl)O3)cc2)CC1` (stereo not drawn) [KETOCONAZOLE], the Activity is 400 mg.

For the compound `CS(=O)(=O)CCNCc1ccc(-c2ccc3ncnc(Nc4ccc(OCc5cccc(F)c5)c(Cl)c4)c3c2)o1` [LAPATINIB], the Activity is 1500 mg.

In the case of `CCCCc1nc(Cl)c(CO)n1Cc1ccc(-c2ccccc2-c2nn[nH]n2)cc1` [LOSARTAN], the Activity is reported as 100 mg.

For the compound `CCc1nn(CCCN2CCN(c3cccc(Cl)c3)CC2)c(=O)n1CCOc1ccccc1` [NEFAZODONE], the Activity turned out to be 600 mg.

As to `COC(=O)C1=C(C)NC(C)=C(C(=O)OCCN(C)Cc2ccccc2)C1c1cccc([N+](=O)[O-])c1` (stereo not drawn) [NICARDIPINE], the Activity came out at 120 mg.

On to `CCc1ccc(CCOc2ccc(CC3SC(=O)NC3=O)cc2)nc1` (stereo not drawn) [PIOGLITAZONE], for which the Activity amounted to 45 mg.

Turning to `COC(=O)[C@H]1[C@H]2C[C@@H]3c4[nH]c5cc(OC)ccc5c4CCN3C[C@H]2C[C@@H](OC(=O)c2cc(OC)c(OC)c(OC)c2)[C@@H]1OC` [RESERPINE], the Activity is on record as 0.5 mg.

With `CN(CCOc1ccc(CC2SC(=O)NC2=O)cc1)c1ccccn1` (stereo not drawn) [ROSIGLITAZONE], the Activity came to 8 mg.

For `Cc1c(C)c2c(c(C)c1O)CCC(C)(COc1ccc(CC3SC(=O)NC3=O)cc1)O2` (stereo not drawn) [TROGLITAZONE], the Activity worked out at 600 mg.

(Values after ChEMBL document CHEMBL4665680, “Drug Induced Liver Injury (DILI). Mechanisms and Medicinal Chemistry Avoidance/Mitigation Strategies” (J Med Chem, 2020).)
